Key:
ERK1/2 = ERK1/2 activation in BAEC (western blot); assay type: cell-based, bovine
Description: Effect of QK and VEGF15 on ERK1/2 activation. Serum deprived BAEC were treated with QK (a) or with VEGF 15 (b) in absence or in presence of VEGF165 (100 ng/ml) for 15 minutes at 37° C. and then dissolved in RIPA-SDS buffer. Total ERK1/2 and the phosphorylated form of ERK1/2 were visualized by specific antibodies.
Western blot. Cells were plated on six-well dishes and serum starved overnight. On the next day, cells were treated with different amount of peptide in absence or in presence of VEGF165 for 15 minutes at 37° C. and then dissolved in RIPA-SDS buffer (50 mM Tris-HCl (pH 7.5), 150 mM NaCl, 1% NP-40, 0.25% deoxycholate, 9.4 mg/50 ml sodium orthovanadate, […]). In some experiments, total KDR and Flt-1 were immunoprecipitated from an equal amount of whole-cell protein extracts using protein A/G agarose beads conjugated with antibodies raised against total KDR or Flt-1 (R&D). Proteins from whole-cell extracts or immunocomplexes were resolved by PAGE and transferred to nitrocellulose. Total extracellular signal-regulated kinase 1 and 2 (ERK1/2), serine-tyrosin phosphorylated ERK1/2, phospho-tyrosine (Cell signaling) and phospho-RB (p-RB) (Santacruz) were visualized by specific antibodies, anti-rabbit HRP-conjugated secondary antibody (Santacruz) and standard chemiluminescence (Pierce).
Activation of the proliferative intracellular pathways. We then explored whether QK is able to start the pathways of endothelial cell activation. It is well established that angiogenesis modulate by VEGF is largely ERK1/2 dependent, leading to DNA synthesis and cell proliferation (7). Accordingly, we assessed the effects of QK on this kinase. […] To verify whether ERK1/2 activation to QK results in cell proliferation, we studied cell proliferation indicators such as cell number, DNA synthesis and cyclin activation.

WKY rats = assay: Implanted Matrigel model in rats; assay type: in vivo, rat; details: subcutaneous plug, one week
Description: Implanted Matrigel Model in rats. Each animals was subcutaneously injected with 1 mL Matrigel Matrix High (18-22 mg/mL; Becton Dickinson, Franklin Lakes, N.J.) containing QK, VEGF 15, VEGF 165 (10^-6 M) or saline solution on the back. One week later, Matrigel plugs were removed and fixed in 4% buffered formaldehyde in PBS for histologic analysis using Masson trichrome staining. The capillary-occupied area per field of view from 15 to 20 fields in tissue sections was measured using a computerized digital camera system (Olympus, Melville, N.Y.) and NIH Image 1.61 (NIH, Bethesda, Md.).
We evaluated the proangiogenic effects of QK in vivo using a subcutaneous injection of Matrigel Matrix High (BD Technologies) […] (VEGF 15 10^-7 M), in anesthetized twelve-week-old WKY rats. After one week the plugs were removed and analyzed in gross morphology and capillaries infiltration by CD31/vWF immunostaining. […] After 14 days animals were anesthetized and hindlimbs blood flow (BF) assessed by digital angiographies counting the TIMI Frame score (TFC) needs to the contrast to arrive at the artery dorsal paw (FIG. 5a). BF was also evaluated by dyed beads dilution through injection in abdominal aorta of yellow beads ([…]) (FIG. 5b). By histology on the ischemic and non ischemic anterior tibial muscle, we evaluated capillary density.

HUVEC = assay: Analysis of caspase 3 activity in HUVEC deprived of FBS; assay type: cell-based, human; details: 4 h
Description: HUVE cells (1×10^4/cm2) were incubated in medium without FBS, in the absence or presence of VEGF (20 ng/ml) and QK (5 ng/ml), at 37° C. in a 5% CO2 atmosphere. After 4 h, caspase 3 activity was determined. Results are expressed as mean values of triplicates.
HUVE cells (1×10^4/cm2) were incubated in medium without FBS, in the absence or presence of VEGF (20 ng/ml) and the indicated peptides (20 ng/ml), at 37° C. in a 5% CO2 atmosphere. After 4 h, caspase 3 activity was determined. Results are expressed as mean values of triplicates.
(§1) Analysis of caspase 3 activity—Cells (2×104) were lysed in a buffer containing Hepes 50 mM, DTT 1 mM, EDTA 0.1 mM, NP-40 0.1%, CHAPS 0.1% and protein quantitation determined. Protein aliquots (20 μg) were incubated with 20 μM Ac-DEVD-AMC (Pharmingen, San Diego, Calif.) in a buffer containing Hepes 50 mM, DTT 1 mM, EDTA 0.1 mM, NP-40 0.1%, CHAPS 0.1%, at 37° C. for 3 h. Caspase 3 activity was determined in the cytosolic extracts by analysing the release of 7-amino-4-methylcoumarin (AMC) from N-acetyl-DEVD-AMC (Thornberry N A, et al. Nature 1992; 356:768-74); the release of AMC was monitored in a spectrofluorometer with an excitation wavelength of 380 nm and emission wavelength of 440 nm.
as §1, with “356: 768-74);” for “356:768-74);”

Sequence: KLTWQELYQLKYKGI [QK]
- ERK1/2 activation in presence of VEGF (ERK1/2; BAEC, with VEGF165 100 ng/ml, 15 minutes): additive to VEGF
- ERK1/2 activation (ERK1/2; serum deprived BAEC, 15 minutes at 37° C.): leaded to ERK1/2 activation in a dose dependent fashion
- Matrigel plug gross morphology (macroscopic inspection) (WKY rats): contained blood
- peripheral capillaries infiltration of Matrigel plugs (WKY rats; versus VEGF 15 plugs): greater peripheral capillaries infiltration
- rescue from apoptosis in presence of VEGF (caspase 3) (HUVEC; QK 5 ng/ml with VEGF 20 ng/ml): enhanced the response of HUVEC to VEGF
- rescue of HUVEC from apoptosis (caspase 3 activation) (HUVEC; VEGF 20 ng/ml, QK 5 ng/ml): showed a biological effect similar to VEGF

Reference: patent US20090305994A1, “Compounds Modulating Vegf Receptor and Uses Thereof” (priority 2005, published 2009)
